Here are results for 29 sequences from the supplement of paper PMC11208160.

This series is described as follows: recombinant UMI read abundance after kanamycin selection (control-corrected) (log10(CPM+1)); higher = more efficient recombination; extreme values may be limits of the assay; sequences stand for … in AGTGCAGAGAAAATCGGCCAGTTTTCTCTGCCTGCAGTCCGCATGCCGTGGGACCCCTTGGGTTCTAACCTGTTGCCTAGATTTATGCAGCGGACTGCCTTTCTCCCAAAGTGATAAACCGG…AGGTTGGTTTCACT; site = the 11-nt donor. In a few lines: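 Values are reported as log10(CPM+1), obtained by converting sequencing counts to CPM, averaging replicates and scaling by control-derived factors. The counts came from recombinant UMIs amplified by PCR across the donor–target junction. These UMIs came from a pooled Escherichia coli screen of donor and donor-binding-loop pairs for the IS621 bridge recombinase, plated with IPTG (0.07 mM) plus kanamycin or left unselected, in two replicates each.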
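Further: IS621 bridge recombinase in Escherichia coli cells against a fixed T5 target plasmid.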

In the case of “CAATGATCATGGACCGGTTTTCCCGGTAATCCGTATTTGCT (site CGATCATCTAG)”, the “recombinant UMI read abundance (log10)” value stood at 0.
With “CAATGCACATGGACCGGTTTTCCCGGTAATCCGTATTTGAA (site CAATGCACTTT)”, the “recombinant UMI read abundance (log10)” value was determined as 1.97.
Regarding “CAATGCACATGGACCGGTTTTCCCGGTAATCCGTATTTGAA (site CAATGCCCTTT)”, the “recombinant UMI read abundance (log10)” value turned out to be 0.
Under “CAATGCACATGGACCGGTTTTCCCGGTAATCCGTATTTGAA (site CAATGCGCTTT)” stands 0.409; under “CAATGCACATGGACCGGTTTTCCCGGTAATCCGTATTTGAA (site CAATGCTCTTT)”, 0.438; under “CAATGCTCATGGACCGGTTTTCCCGGTAATCCGTATTTGCA (site CAATGCTCTTA)”, 1.1.
For “CAATGCTCATGGACCGGTTTTCCCGGTAATCCGTATTTGCA (site CAATGCTCTTC)” the value was 0.
Under “CAATGCTCATGGACCGGTTTTCCCGGTAATCCGTATTTGCA (site CAATGCTCTTG)” stands 2.35; under “CAATGCTCATGGACCGGTTTTCCCGGTAATCCGTATTTGCA (site CAATGCTCTTT)”, 0.353.
As to “CAATGCTCATGGACCGGTTTTCCCGGTAATCCGTATTTGGA (site CAATGCTCTTA)”, the “recombinant UMI read abundance (log10)” value amounted to 2.13.
Regarding “CAATGCTCATGGACCGGTTTTCCCGGTAATCCGTATTTGGA (site CAATGCTCTTC)”, the “recombinant UMI read abundance (log10)” value was 2.46.
Under “CAATGCTCATGGACCGGTTTTCCCGGTAATCCGTATTTGGA (site CAATGCTCTTG)” stands 1.83; under “CAATGCTCATGGACCGGTTTTCCCGGTAATCCGTATTTGGA (site CAATGCTCTTT)”, 2.45; under “CAATTCACATGGACCGGTTTTCCCGGTAATCCGTATTTGCT (site CAATTCACTAG)”, 1.32.
For “CAATTCACATGGACCGGTTTTCCCGGTAATCCGTATTTGCT (site CAATTCCCTAG)” the value was 0; for “CAATTCACATGGACCGGTTTTCCCGGTAATCCGTATTTGCT (site CAATTCGCTAG)”, 0.587.
As to “CAATTCACATGGACCGGTTTTCCCGGTAATCCGTATTTGCT (site CAATTCTCTAG)”, the “recombinant UMI read abundance (log10)” value was 0.
Under “CAATTCCCATGGACCGGTTTTCCCGGTAATCCGTATTTGCC (site CAATTCCCTAG)” stands 0.635.
“CAATTCCCATGGACCGGTTTTCCCGGTAATCCGTATTTGCC (site CAATTCCCTCG)”: the “recombinant UMI read abundance (log10)” value worked out at 0.0185.
Consider “CAATTCCCATGGACCGGTTTTCCCGGTAATCCGTATTTGCC (site CAATTCCCTGG)”, for which the “recombinant UMI read abundance (log10)” value turned out to be 0.
Under “CAATTCCCATGGACCGGTTTTCCCGGTAATCCGTATTTGCC (site CAATTCCCTTG)” stands 0; under “CAATTCCCATGGACCGGTTTTCCCGGTAATCCGTATTTGGT (site CAATTCCCTAA)”, 0.173.
Under “CAATTCCCATGGACCGGTTTTCCCGGTAATCCGTATTTGGT (site CAATTCCCTAC)” stands 0.529; under “CAATTCCCATGGACCGGTTTTCCCGGTAATCCGTATTTGGT (site CAATTCCCTAG)”, 0; under “CAATTCCCATGGACCGGTTTTCCCGGTAATCCGTATTTGGT (site CAATTCCCTAT)”, 0.681.
For “CAATTGACATGGACCGGTTTTCCCGGTAATCCGTATTTGAA (site CAATTGACTTT)” the value was 2.17; for “CAATTTCCATGGACCGGTTTTCCCGGTAATCCGTATTTGCT (site CAATTACCTAG)”, 0.
For “CAATTTCCATGGACCGGTTTTCCCGGTAATCCGTATTTGCT (site CAATTCCCTAG)”, the “recombinant UMI read abundance (log10)” value was 0.761.
Under “CAATTTCCATGGACCGGTTTTCCCGGTAATCCGTATTTGCT (site CAATTGCCTAG)” stands 0.00704.
